Series [1] concerns the target T1, hERG WT (Homo sapiens, UniProt Q12809).
T1 construct: expressed in transfected cells
In words: Manual patch-clamp (MPC) on hERG wild type. The series is classed as cell-based. As for the experimental part: Manual patch-clamp (MPC) recordings were performed 24–48 h post-transfection. Patch pipettes were pulled from borosilicate glass and had resistances of 4–7 MΩ when filled with intracellular solution. Coverslips with CHO-K1 cells were placed in a recording chamber and continuously perfused at room temperature (22–24 °C) with extracellular solution using a gravity-fed perfusion system. The intracellular and extracellular solutions used for MPC were identical to those used for APC electrophysiology (see above). Extracellular solution without DMSO was used as a vehicle. Compounds were diluted from the stock solution as a series of dilutions in extracellular solution (i.e., no compensation for different concentrations of DMSO in recording solutions). Compounds were applied to the recorded cells by a pressurized, automated OctaFlow perfusion system (ALA Scientific Instruments).
Each voltage protocol was first run three times in extracellular solution, the 3rd serving as the baseline. Voltage protocols were repeated in the presence of cumulatively rising concentrations of test compound; each concentration was present for 30 s before the recording started. The signals were sampled at 5 kHz after low-pass filtering at 2 kHz.
For Gmax (rel.), N was set to –1. For ΔV50, N was set to 1.

Series [2] addresses hERG (KV11.1) (Homo sapiens, UniProt Q12809). The series is described as follows: Automated planar patch-clamp (APC, QPatch II 48), voltage-ladder protocol, CHO cells stably expressing human hERG. (In patch-clamp work, channel activity is measured electrically.)
In series [3] the target is KV7.1/KCNE1 (Homo sapiens, UniProt P51787). The series is described as follows: Automated patch-clamp (APC, population patch), CHO cells stably expressing human KV7.1/KCNE1. Type of series: cell-based.
KV7.1/KCNE1, sequence (P51787 whole entry): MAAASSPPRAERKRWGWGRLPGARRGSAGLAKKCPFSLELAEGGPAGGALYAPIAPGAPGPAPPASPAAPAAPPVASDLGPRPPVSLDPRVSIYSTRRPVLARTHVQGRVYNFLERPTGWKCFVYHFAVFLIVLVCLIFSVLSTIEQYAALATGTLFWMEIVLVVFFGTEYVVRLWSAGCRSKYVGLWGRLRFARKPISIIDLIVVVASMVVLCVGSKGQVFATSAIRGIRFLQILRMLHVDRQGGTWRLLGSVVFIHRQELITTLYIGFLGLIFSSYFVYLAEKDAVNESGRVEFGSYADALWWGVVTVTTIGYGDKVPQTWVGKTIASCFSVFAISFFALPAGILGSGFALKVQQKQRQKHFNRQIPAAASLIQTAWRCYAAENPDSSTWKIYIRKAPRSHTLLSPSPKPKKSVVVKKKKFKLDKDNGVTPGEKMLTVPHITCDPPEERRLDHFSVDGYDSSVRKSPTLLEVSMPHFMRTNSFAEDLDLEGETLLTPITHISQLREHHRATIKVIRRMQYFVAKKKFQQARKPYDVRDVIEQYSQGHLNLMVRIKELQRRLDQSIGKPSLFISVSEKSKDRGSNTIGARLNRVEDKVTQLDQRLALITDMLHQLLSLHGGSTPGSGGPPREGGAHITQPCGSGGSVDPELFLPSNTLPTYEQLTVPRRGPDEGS

Molecules are shown by their SMILES. pIC50: −log10 of the molar value.

hERG (KV11.1), sequence (Q12809 whole entry): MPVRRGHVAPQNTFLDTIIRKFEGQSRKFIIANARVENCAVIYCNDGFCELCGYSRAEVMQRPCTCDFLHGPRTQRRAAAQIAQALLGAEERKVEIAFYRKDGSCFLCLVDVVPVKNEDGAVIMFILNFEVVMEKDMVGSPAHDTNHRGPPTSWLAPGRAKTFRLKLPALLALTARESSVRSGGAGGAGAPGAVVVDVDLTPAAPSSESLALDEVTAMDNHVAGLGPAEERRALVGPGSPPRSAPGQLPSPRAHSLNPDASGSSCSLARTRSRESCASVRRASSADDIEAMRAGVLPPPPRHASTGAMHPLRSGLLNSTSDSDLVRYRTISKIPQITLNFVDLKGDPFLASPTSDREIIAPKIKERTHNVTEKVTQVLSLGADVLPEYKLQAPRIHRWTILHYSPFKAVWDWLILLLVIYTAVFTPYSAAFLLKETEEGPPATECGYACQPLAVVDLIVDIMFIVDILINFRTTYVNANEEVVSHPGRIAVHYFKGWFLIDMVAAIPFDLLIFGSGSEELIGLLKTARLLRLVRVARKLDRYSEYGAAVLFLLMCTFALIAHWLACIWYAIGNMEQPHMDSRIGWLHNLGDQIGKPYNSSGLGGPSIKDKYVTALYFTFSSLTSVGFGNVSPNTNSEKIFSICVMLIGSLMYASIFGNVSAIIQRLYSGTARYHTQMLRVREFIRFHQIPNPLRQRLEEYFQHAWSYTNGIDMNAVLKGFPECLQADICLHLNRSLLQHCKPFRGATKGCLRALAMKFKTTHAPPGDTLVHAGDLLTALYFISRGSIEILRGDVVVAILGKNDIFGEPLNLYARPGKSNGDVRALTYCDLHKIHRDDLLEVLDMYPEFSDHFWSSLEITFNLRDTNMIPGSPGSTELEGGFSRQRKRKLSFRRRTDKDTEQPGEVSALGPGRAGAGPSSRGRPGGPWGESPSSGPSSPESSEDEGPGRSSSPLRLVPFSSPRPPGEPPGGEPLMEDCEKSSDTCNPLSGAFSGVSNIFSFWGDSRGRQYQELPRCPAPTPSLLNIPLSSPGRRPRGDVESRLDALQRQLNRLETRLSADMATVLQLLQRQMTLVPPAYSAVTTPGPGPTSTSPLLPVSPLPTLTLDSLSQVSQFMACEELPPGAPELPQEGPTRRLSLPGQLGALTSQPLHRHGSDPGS
T1 sequence (Q12809 whole entry): as above

For the molecule `COC(=O)C(NC(=O)c1nn(CCCCCF)c2ccccc12)C(C)(C)C` (centres unmarked) [5F-MDMB-PINACA, methyl 2-{[1-(5-fluoropentyl)-1H-indazole-3-carbonyl]amino}-3,3-dimethylbutanoate], the pIC50 (in general, the negative decadic logarithm of the IC50, by convention in mol/L) in series [1] was 5.40; in series [2], 5.05; in series [3], 4.15. In addition, in series [2] (APC concentration-response, 1.11 to 30 µM), the “effect on Gmax of hERG (in words)” value is “one of the most prominent in reducing Gmax of hERG”. The “hERG channel Efficacy (max reduction in Gmax) Gmin” value in series [2] (best fit, 1 = no reduction of Gmax, 0 = complete reduction, APC, 22 °C) is 0.00. For the same molecule, the “Gmax effect on hERG versus KV7.1/KCNE1 (in words)” value in series [3] (10 µM, both channels by APC) is “effects only on hERG”. Further, the “effect on KV7.1/KCNE1 (in words)” value in series [3] (APC) was “small effect on KV7.1/KCNE1”. Besides, the “KV7.1/KCNE1 channel Efficacy (max reduction in Gmax) Gmin” value in series [3] (best fit, 1 = no reduction of Gmax, 0 = complete reduction) turned out to be 0.
